Data on one molecule can be found in patent US7485642B2, “Method for treating septic shock” (Orion Corporation, priority 2000, dated 2009).

The experiment deals with porcine model of endotoxin shock. In words: porcine model of endotoxin shock. It counts as in vivo, landrace pigs. How it is done:
20 kg landrace pigs were anesthetized and catheterized. After baseline measurements 8 pigs received 200 μg/kg levosimendan as a 10 minute bolus followed by an infusion of 200 μg/kg/hour. 9 animals served as controls.
In the second phase of the experiment the animals were given an infusion of endotoxin (from E. Coli bacteria) 30 minutes after the start of the bolus dose of levosimendan. The endotoxin infusion was maintained for 3 hours and the levosimendan infusion was maintained throughout the experiment until 5 hours after onset of endoxemia. Comparison between the two groups was made with ANOVA.
The changes in the cardiac index, splanchnic (portal) blood flow index, portal venous blood lactate and pulmonary vascular resistance are shown in FIGS. 1-4. In the Figures, (−0.5 h) means the start of levosimendan bolus and (0 h) the start of endotoxin infusion.

[1] abbreviates: porcine model of endotoxin shock, 200 μg/kg 10 minute bolus followed by infusion of 200 μg/kg/hour, E. Coli endotoxin infusion 3 hours.

`CC1CC(=O)NN=C1c1ccc(NN=C(C#N)C#N)cc1` (single isomer, unassigned; (-)) [levosimendan, (−)-[[4-(1,4,5,6-tetrahydro-4-methyl-6-oxo-3-pyridazinyl)phenyl]hydrazono]propanedinitrile]: the survival entry (8 levosimendan treated pigs, until 5 hours after onset of endotoxemia) was “All levosimendan treated animals survived”. Under setting [1], the “endotoxin-induced decreases in cardiac output” value is reported as “counteracts” and the endotoxin-induced splanchnic hyperperfusion result is “counteracts endotoxin-induced splanchnic hyperperfusion”. Moreover, where the note is “vs control, ANOVA, until 5 hours after onset of endotoxemia”, the “endotoxin-induced circulatory disorders (cardiac index, portal blood flow index, portal venous blood lactate, pulmonary vascular resistance; FIGS. 1-4)” value is given as “can significantly counteract endotoxin-induced circulatory disorders”.
